Reference: patent EP0788498B1, “PHENYLOXAZOLIDINONE ANTIMICROBIALS” (priority 1994, dated 1996)
In brackets after ≈: the same amount, converted by molar mass. Read-outs that look alike come from different tables or passages of the source.

Tests used:
S. aureus UC® 9213 = assay: Minimum inhibitory concentration (MIC) by agar dilution; type: cell-based; conditions: Staphylococcus aureus
Text: (§1) The oxazolidinone antibacterial agents of this invention have useful activity against a variety of organisms. The in vitro activity of compounds of this invention can be assessed by standard testing procedures such as the determination of minimum inhibitory concentration (MIC) by agar dilution as described in "Methods for Dilution Antimicrobial Susceptibility Tests for Bacteria That Grow Aerobically" (MFT) published Jan. 1983 by the National Committee for Clinical Laboratory Standards, 771 East Lancaster Avenue, Villanova, Pennsylvania 19084, USA. The activity of selected compounds of this invention against Staphylococcus aureus and Streptococcus pneumoniae are shown in Table 1.

S. pneumoniae UC® 9912 = assay: as above; type: cell-based; conditions: Streptococcus pneumoniae
Text: as §1

[1] = UC9213, in vitro, agar dilution, strain UC® 9213, read-out: Minimum Inhibitory Concentration S. aureus UC® 9213
[2] = UC9912, in vitro, agar dilution, strain UC® 9912, read-out: Minimum Inhibitory Concentration S. pneumoniae UC® 9912

Row | Compound | MIC (S. aureus UC® 9213; [1]) [µg/mL] | MIC (S. pneumoniae UC® 9912; [2]) [µg/mL] | MIC (S. aureus UC® 9213; UC9213, read-out: Minimum Inhibitory Concentration S. aureus UC® 9213) [µg/mL] | MIC (S. pneumoniae UC® 9912; UC9912, read-out: Minimum Inhibitory Concentration S. pneumoniae UC® 9912) [µg/mL]
1 | CC(=O)NC[C@H]1CN(c2ccc(N3C[C@@H](C)[C@@H](NC(=O)CO)C3)c(F)c2)C(=O)O1 (relative stereo) [Example 15] | 16 (≈ 39.2 µM) | 2 (≈ 4.9 µM) | – | –
2 | CC(=O)NC[C@H]1CN(c2ccc(N3CC(C)(O)C3)c(F)c2)C(=O)O1 [Example 7, (S)-N-[[3-[3-fluoro-4-(3-hydroxy-3-methyl-1-azetidinyl)phenyl]-2 oxo-5-oxazolidinyl]methyl]acetamide] | 8 (≈ 23.7 µM) | 2 (≈ 5.93 µM) | – | –
3 | COC1(C)CN(c2ccc(N3C[C@H](CNC(C)=O)OC3=O)cc2F)C1 [Example 6, (S)-N-[[3-[3-fluoro-4-(3-methoxy-3-methyl-1-azetidinyl)phenyl]-2-oxo-5-oxazolidinyl]methyl]acetamide] | 8 (≈ 22.8 µM) | 4 (≈ 11.4 µM) | – | –
4 | CC(=O)NC[C@H]1CN(c2ccc(N3C[C@@H]4OC(C)(C)O[C@@H]4C3)c(F)c2)C(=O)O1 [Example 8, (S)-N-[[3-[4-(1-Aza-5,5-dimethyl-4,6-dioxabicyclo[3,3,0]octan-1-yl)-3-fluorophenyl]-2-oxo-5-oxazolidinyl]methyl]acetamide] | 32 (≈ 81.3 µM) | 8 (≈ 20.3 µM) | – | –
5 | CC(=O)NC[C@H]1CN(c2ccc(N3CCC(NC(=O)COCc4ccccc4)C3)c(F)c2)C(=O)O1 (stereo partly drawn) [Example 12, (S)-N-((3-(3-Fluoro-4-(3-(phenylmethoxyacetylamino)pyrrolidinyl)phenyl)-2-oxo-5-oxazolidinyl)methyl)acetamide] | 8 (≈ 16.5 µM) | 2 (≈ 4.13 µM) | – | –
6 | CC(=O)NC[C@H]1CN(c2ccc(N3CCC(NC(=O)CO)C3)c(F)c2)C(=O)O1 (stereo partly drawn) [Example 13, (S)-N-((3-(3-Fluoro-4-(3-(hydroxyacetylamino)pyrrolidinyl)phenyl)-2-oxo-5-oxazolidinyl)methyl)acetamide] | 16 (≈ 40.6 µM) | 2 (≈ 5.07 µM) | – | –
7 | CN[C@H](CC(C)C)C(=O)N[C@H]1C(=O)N[C@@H](CC(N)=O)C(=O)N[C@H]2C(=O)N[C@H]3C(=O)N[C@H](C(=O)N[C@H](C(=O)O)c4cc(O)cc(O)c4-c4cc3ccc4O)[C@H](O)c3ccc(c(Cl)c3)Oc3cc2cc(c3O[C@@H]2O[C@H](CO)[C@@H](O)[C@H](O)[C@H]2O[C@H]2C[C@](C)(N)[C@H](O)[C@H](C)O2)Oc2ccc(cc2Cl)[C@H]1O [vancomycin, reference compound] | – | – | 1 (≈ 0.69 µM) | 0.5 (≈ 0.345 µM)
8 | CC(=O)NC[C@H]1CN(c2ccc(N3CC(N(C)CCF)C3)c(F)c2)C(=O)O1 [Example 3, (S)-N-[[3-[3-fluoro-4-[3-[N-(2-fluoroethyl)-N-methylamino]-1-azetidinyl]phenyl]-2-oxo-5-oxazolidinyl]methyl]acetamide] | 16 (≈ 41.8 µM) | 8 (≈ 20.9 µM) | – | –
9 | CC(=O)NC[C@H]1CN(c2ccc(N3C[C@@H](O)[C@@H](O)C3)c(F)c2)C(=O)O1 [Example 9, (S)-N-[[3-[4-(3,4-cis-dihydroxypyrrolidinyl)-3-fluorophenyl]-2-oxo-5-oxazolidinyl]methyl]acetamide] | 8 (≈ 22.6 µM) | 2 (≈ 5.66 µM) | – | –
10 | CON=C1CN(c2ccc(N3C[C@H](CNC(C)=O)OC3=O)cc2F)C1 [Example 5, (S)-N-[[3-[3-fluoro-4-[3-(methoxyimino)-1-azetidinyl]phenyl]-2-oxo-5-oxazolidinyl]methyl]acetamide] | 4 (≈ 11.4 µM) | 1 (≈ 2.85 µM) | – | –
11 | CC(=O)NC[C@H]1CN(c2ccc(N3C[C@@H](C)[C@@H](NS(C)(=O)=O)C3)c(F)c2)C(=O)O1 (relative stereo) [Example 16] | 8 (≈ 18.7 µM) | 1 (≈ 2.33 µM) | – | –

Now from value to compound, other results behind:

Row | MIC (S. aureus UC® 9213; [1]) [µg/mL] | MIC (S. pneumoniae UC® 9912; [2]) [µg/mL] | Compound | MIC (S. aureus UC® 9213; UC9213, read-out: Minimum Inhibitory Concentration S. aureus UC® 9213) [µg/mL] | MIC (S. pneumoniae UC® 9912; UC9912, read-out: Minimum Inhibitory Concentration S. pneumoniae UC® 9912) [µg/mL]
12 | 2 (≈ 5.93 µM) | 1 (≈ 2.96 µM) | CC(=O)NC[C@H]1CN(c2ccc(N3CCC(O)C3)c(F)c2)C(=O)O1 (stereo partly drawn) [Example 10, (S)-N-[[3-[4-(3-hydroxypyrrolidinyl)-3-fluorophenyl]-2-oxo-5-oxazolidinyl]methyl]acetamide] | – | –
13 | 4 (≈ 11.9 µM) | 2 (≈ 5.93 µM) | COC1CN(c2ccc(N3C[C@H](CNC(C)=O)OC3=O)cc2F)C1 [Example 1, (S)-N-[[3-[3-fluoro-4-(3-methoxy-1-azetidinyl]phenyl]-2-oxo-5-oxazolidinyl]methyl]acetamide] | – | –
14 | 1 (≈ 3.11 µM) | 0.5 (≈ 1.56 µM) | CC(=O)NC[C@H]1CN(c2ccc(N3CC(=O)C3)c(F)c2)C(=O)O1 [Example 4, (S)-N-[[3-[3-fluoro-4-(3-oxo-1-azetidinyl)phenyl]-2-oxo-5-oxazolidinyl]methyl]acetamide] | – | –
15 | 4 (≈ 11.9 µM) | 2 (≈ 5.96 µM) | CC(=O)NC[C@H]1CN(c2ccc(N3CCC(=O)C3)c(F)c2)C(=O)O1 [Example 11, (S)-N-((3-(3-fluoro-4-(3-oxopyrrolidinyl)phenyl)-2-oxo-5-oxazolidinyl)methyl)acetamide] | – | –
16 | 4 (≈ 12.4 µM) | 2 (≈ 6.19 µM) | CC(=O)NC[C@H]1CN(c2ccc(N3CC(O)C3)c(F)c2)C(=O)O1 [Example 2, (S)-N-[[3-[3-fluoro-4-(3-hydroxy-1-azetidinyl)phenyl]-2-oxo-5-oxazolidinyl]methyl]acetamide] | – | –
17 | 4 (≈ 9.79 µM) | 1 (≈ 2.45 µM) | COC(=O)N[C@H]1CN(c2ccc(N3C[C@H](CNC(C)=O)OC3=O)cc2F)C[C@H]1C (relative stereo) [Example 14] | – | –
